# From ChEMBL document CHEMBL5365481, “Design, Synthesis, and Activity Evaluation of Novel Dual-Target Inhibitors with Antifungal and Immunoregulatory Properties” (J Med Chem, 2023)
# Assays:
# Format in all cases: functional
# Candida albicans = experiment: Antifungal activity against Candida albicans ATCC SC5314 assessed as inhibition of fungal growth incubated for 72 hrs by CLSI based liquid medium microdilution method
# Cryptococcus neoformans = experiment: Antifungal activity against Cryptococcus neoformans ZKCC 2209 assessed as inhibition of fungal growth incubated for 72 hrs by CLSI based liquid medium microdilution method
# Pichia kudriavzevii = experiment: Antifungal activity against Candida krusei ATCC 6258 assessed as inhibition of fungal growth incubated for 72 hrs by CLSI based liquid medium microdilution method
# Candida tropicalis = experiment: Antifungal activity against Candida tropicalis ATCC 1369 assessed as inhibition of fungal growth incubated for 72 hrs by CLSI based liquid medium microdilution method
# Aspergillus fumigatus = experiment: Antifungal activity against Aspergillus fumigatus KM8001 assessed as inhibition of fungal growth incubated for 72 hrs by CLSI based liquid medium microdilution method
SMILES,MIC50 (Candida albicans) [µg/mL],MIC50 (Cryptococcus neoformans) [µg/mL],MIC50 (Pichia kudriavzevii) [µg/mL],MIC50 (Candida tropicalis) [µg/mL],MIC50 (Aspergillus fumigatus) [µg/mL]
CC(=O)c1ccc(C(=O)N2CCC(NC(=O)c3nc(-n4ccnc4)c4ccccc4n3)CC2)cc1,2,2,1,0.5,4
O=C(NC1CCCc2ccccc21)c1nc(-n2cncn2)c2ccccc2n1 (stereo not given),2,4,2,1,> 8
COc1ccc(C(=O)N2CCC(NC(=O)c3nc(-n4ccnc4)c4ccccc4n3)CC2)cc1,2,1,2,1,4
O=C(NCc1ccccc1)c1nc(-n2cncn2)c2cc(Cl)ccc2n1,1,1,0.5,1,2
CC(=O)c1ccc(NC(=O)c2nc(-n3ccnc3)c3cc(Cl)ccc3n2)cc1,1,2,4,1,> 8
CS(=O)(=O)c1ccc(NC(=O)c2nc(-n3ccnc3)c3cc(Cl)ccc3n2)cc1,1,0.5,2,2,4
